# From patent US10370380B2, “Octahydropyrrolo[3,4-c]pyrrole derivatives and uses thereof” (Sunshine Lake Pharma Co., Ltd., priority 2015, dated 2019)
# Legend:
# [1] = Pharmacokinetic evaluation after intravenous or gavage administration to dogs; type: in vivo, Beagle dogs; conditions: dogs; for AUC(0-inf): read-out: AUCINF; for AUC(0-t): read-out: AUClast; for Cmax: read-out: Cmax; for MRT inf: read-out: MRTINF; for half-life: read-out: T1/2 (converted)
# Description: (§1) The compounds disclosed herein were administered in form of a saline solution containing 5% DMSO, 5% Kolliphor HS 15, 2% (2% HCl) and 88% Saline, or a solution containing 10% DMSO, 10% Kolliphor HS 15 and 80% physiological saline to the subject animals. For intravenous administration, the animals were administered with a dose of 1 mg/kg or 2 mg/kg, and vein blood samples (0.3 mL) were collected at the time points of 0.083, 0.25, 0.5, 1.0, 2.0, 4.0, 6.0, 8.0 and 24 h after drug administration; plasma samples were collected by centrifugation of the vein blood samples at 3000 rpm or 4000 rpm for 10 minutes, and stored at −20° C. or −70° C. For gavage administration, the animals were administered with a dose of 2.5 mg/kg or 5 mg/kg, and vein blood samples (0.3 mL) were collected at the time points of 0.25, 0.5, 1.0, 2.0, 4.0, 6.0, 8.0 and 24 h after drug administration; plasma samples were collected by centrifugation at 3000 rpm or 4000 rpm for 10 minutes, and stored at −20° C. or −70° C. The positive control is suvorexant.
# (§2) The above plasma samples were analyzed by the LC-MS/MS system.
# [2] = Pharmacokinetic evaluation after intravenous or gavage administration to rats; type: in vivo, SD rats; conditions: rats; for AUC(0-inf): read-out: AUCINF; for AUC(0-t): read-out: AUClast; for Cmax: read-out: Cmax; for MRT inf: read-out: MRTINF; for half-life: read-out: T1/2 (converted)
# Description: as §1, §2
# hERG channel = target: T1, hERG channel (Homo sapiens, UniProt Q12809); assay: hERG fluorescence polarization assay (potential of inducing QT interval prolongation); type: binding
# T1 construct: purchased Invitrogen
# Description: The potential of the compound disclosed herein inducing QT interval prolongation was evaluated by detecting if the compound would block the hERG channel. The specific test method is as follows:
# Precisely weighed compound disclosed herein was dissolved in DMSO to formulate a solution at the highest concentration of 10.0 mM, and then the solution was diluted to a initial concentration of 120.0 μM with hERG FP Assay Buffer (Invitrogen); the hERG Tracer Red stock solution (Invitrogen) and the positive control E-4031 stock solution (Invitrogen) were respectively diluted to initial concentrations of 4.0 nM and 120.0 μM with hERG FP Assay Buffer (Invitrogen). […]
# The above-mentioned solution of the compound disclosed herein and E-4031 at the initial concentration of 120 μM were respectively diluted with hERG FP Assay Buffer 5-fold in series to provide 8 concentration of 120.0 μM, 24.0 μM, 4.8 μM, 960.0 nM, 192.0 nM, 38.4 nM, 7.7 nM and 1.5 nM. […] After that, the 384-well plate was put into an oscillator (PHMP-4, Grant-sio), in 25° C., 250 rpm, to incubate for 4 hours, and the fluorescence polarization values were measured by multi-function microplate reader (PHERAStarFS, BMG LABTECH) and corrected with the minimum and maximum fluorescence polarization values of E-4031, and the IC50 of the compound disclosed herein was calculated by GraphPad software. […]
# [3] = Stability in human liver microsome; type: in vitro ADME; conditions: microsomes, pH 4, human liver microsome 0.5 mg/mL, 1 μM, 37° C., NADPH
# Description: A mixture of the compound of the invention and human liver microsome in 0.1 M potassium phosphate buffer (containing 1.0 mM EDTA, pH=4) was incubated at 37° C., the sample concentrations at different incubation times were measured, and then the half life of the compound was calculated by plotting “the relative amount of the compound” against “incubation time” by using software GraphPad Prism 5.01, and intrinsic clearance was calculated. The experiment system shown as table 5:
# The sample was analyzed by LC/MS/MS (ESI […] source and waters xbridge C18 EB-A-1420 chromatographic column were adopted), the mobile phases were an aqueous solution with 2 mM ammonium formate and 0.1% formic acid (mobile phase A) and an methanol solution with 2 mM ammonium formate and 0.1% formic acid (mobile phase B), the flow rate was 0.4 mL/min; the column temperature was 40° C. The ratio of the sample peak area to the internal standard peak area was obtained through LC/MS/MS analysis, the content of the compound at 0 time point was as 100%, the relative content of the compound at each time point was calculated. The half life of the compound was calculated by plotting “the relative amount of the compound” against “incubation time”, and intrinsic clearance was calculated.
# The positive control is suvorexant.
# [4] = beagle, dog, in vivo, iv, 1 mg/kg
# [5] = beagle, dog, in vivo, po, 5 mg/kg
# T1 sequence (Q12809 whole entry): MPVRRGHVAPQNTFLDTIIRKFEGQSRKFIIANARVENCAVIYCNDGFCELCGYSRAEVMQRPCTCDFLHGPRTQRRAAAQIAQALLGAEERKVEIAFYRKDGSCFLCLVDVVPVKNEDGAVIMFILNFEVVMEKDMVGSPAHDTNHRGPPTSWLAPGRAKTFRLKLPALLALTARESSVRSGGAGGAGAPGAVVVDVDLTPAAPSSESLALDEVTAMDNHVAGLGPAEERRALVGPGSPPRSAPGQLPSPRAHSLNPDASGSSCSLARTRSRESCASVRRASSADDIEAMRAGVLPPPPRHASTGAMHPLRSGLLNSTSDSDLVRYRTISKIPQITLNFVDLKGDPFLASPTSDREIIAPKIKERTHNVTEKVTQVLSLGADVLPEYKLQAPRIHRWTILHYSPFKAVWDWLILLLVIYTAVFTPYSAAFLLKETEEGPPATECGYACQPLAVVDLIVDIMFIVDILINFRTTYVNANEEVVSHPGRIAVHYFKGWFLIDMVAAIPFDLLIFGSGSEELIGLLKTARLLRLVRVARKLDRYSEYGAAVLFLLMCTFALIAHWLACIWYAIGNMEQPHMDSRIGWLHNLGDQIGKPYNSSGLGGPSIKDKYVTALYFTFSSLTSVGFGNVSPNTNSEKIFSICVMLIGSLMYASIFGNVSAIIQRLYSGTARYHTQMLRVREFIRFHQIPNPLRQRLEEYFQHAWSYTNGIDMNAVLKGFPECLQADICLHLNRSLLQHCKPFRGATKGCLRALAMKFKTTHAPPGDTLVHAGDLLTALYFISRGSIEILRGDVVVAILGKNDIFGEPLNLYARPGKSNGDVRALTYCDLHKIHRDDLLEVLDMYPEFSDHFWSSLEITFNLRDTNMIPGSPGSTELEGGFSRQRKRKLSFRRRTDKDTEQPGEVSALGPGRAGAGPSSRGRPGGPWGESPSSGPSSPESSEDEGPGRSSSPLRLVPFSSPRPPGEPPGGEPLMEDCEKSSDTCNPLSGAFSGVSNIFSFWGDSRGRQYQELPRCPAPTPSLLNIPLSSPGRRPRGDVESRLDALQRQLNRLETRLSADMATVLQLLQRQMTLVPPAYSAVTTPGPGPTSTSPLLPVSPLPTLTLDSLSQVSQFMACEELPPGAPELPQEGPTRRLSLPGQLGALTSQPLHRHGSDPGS
smiles,measurement,setting,value
"Cc1ccc(-n2nccn2)c(C(=O)N2CCN(c3nc4cc(Cl)ccc4o3)CC[C@H]2C)c1 [suvorexant, reference compound]",AUC(0-inf),[1]; [4],5960 ng·h/mL
same,AUC(0-t),[1]; [4],5750 ng·h/mL
same,clearance,"[1]; beagle, dog, in vivo, iv, 1 mg/kg, read-out: Cl",2.82 mL/min/kg
same,Cmax,[1]; [4],2100 ng/mL
same,MRT inf,[1]; [4],5.39 h
same,half-life,[1]; [4],5.79 h
same,Vd,"[1]; beagle, dog, in vivo, iv, 1 mg/kg, read-out: Vss",0.919 L/kg
same,AUC(0-inf),[1]; [5],14300 ng·h/mL
same,AUC(0-t),[1]; [5],13600 ng·h/mL
same,Cmax,[1]; [5],1640 ng/mL
same,MRT inf,[1]; [5],7.2 h
same,half-life,[1]; [5],5.71 h
same,F,"[1]; po, 5 mg/kg",48%
same,AUC(0-inf),"[2]; SD, rat, in vivo, iv, 2 mg/kg",655 ng·h/mL
same,AUC(0-t),"[2]; SD, rat, in vivo, iv, 2 mg/kg",655 ng·h/mL
same,clearance,"[2]; SD, rat, in vivo, iv, 2 mg/kg, read-out: Cl",51.2 mL/min/kg
same,Cmax,"[2]; SD, rat, in vivo, iv, 2 mg/kg",784 ng/mL
same,MRT inf,"[2]; SD, rat, in vivo, iv, 2 mg/kg",0.708 h
same,half-life,"[2]; SD, rat, in vivo, iv, 2 mg/kg",0.569 h
same,Vd,"[2]; SD, rat, in vivo, iv, 2 mg/kg, read-out: Vss",2.17 L/kg
same,AUC(0-inf),"[2]; SD, rat, in vivo, po, 5 mg/kg",530 ng·h/mL
same,AUC(0-t),"[2]; SD, rat, in vivo, po, 5 mg/kg",528 ng·h/mL
same,Cmax,"[2]; SD, rat, in vivo, po, 5 mg/kg",249 ng/mL
same,MRT inf,"[2]; SD, rat, in vivo, po, 5 mg/kg",1.95 h
same,half-life,"[2]; SD, rat, in vivo, po, 5 mg/kg",0.99 h
same,F,"[2]; po, 5 mg/kg",32.4%
same,IC50,hERG channel,1790 nM
same,half-life at 1 μM,[3]; read-out: Half life,9.85 min
same,CLint scaled at 1 μM,[3]; read-out: intrinsic clearance,176 mL/min/kg
